Data as given in patent US7642287B2, “Statin pharmaceutical compositions and related methods of treatment” (Transform Pharmaceuticals, Inc., priority 2004, dated 2010).
Several values for one entry are separate records, joined by “and”; a condition that tells them apart may be missing. Equal entries are not always repeated. Structures can show the parent of a compound that is named as a salt. Where two headings read alike, the source gives them in different places.

Legend:
[1] = Gravimetric solubility in deionized water at 23 degrees C; type: physicochemical; conditions: listed as calcium salt of fluvastatin
Description: Solubility measurements of the sodium salt and of the calcium salt of fluvastatin were acquired in water at 23 degrees C. Solubility was measured gravimetrically in deionized water.

[2] = 26 week stability of pravastatin salts suspended in E463808 omega-3 oil (HPLC); type: physicochemical
Description: Several salts of pravastatin were suspended in E463808 omega-3 oil and placed in either capped glass vials or sealed gelatin capsules. […] were used at 25 degrees C. while glass vials were used at 25, 40, and 60 degrees C. The suspensions of salt in oil were measured periodically for 26 weeks. HPLC was used to measure degradation of the pravastatin salts.

[3] = Pharmacokinetic two-way cross-over study in fasted beagle dogs (plasma pravastatin, LC/MS); type: in vivo
Description: A two-way cross-over experiment was completed with six fasted beagle dogs to compare the pharmacokinetic parameters of pravastatin calcium salt with pravastatin sodium salt. The pravastatin sodium salt was acquired from PRAVACHOL® tablets. The pravastatin calcium salt was acquired via the method described in Example 1. The pravastatin calcium salt dosage form administered to the dogs consisted of 11.0 mg pravastatin calcium salt (equivalent to 10 mg pravastatin acid) and 744 mg Ropufa 75 ethyl esters of omega-3 fatty acids in a soft gelatin capsule shell. […] The mean dose of pravastatin free acid administered as PRAVACHOL® was 0.85 mg/kg and the mean dose of pravastatin free acid administered as pravastatin calcium salt was 0.95 mg/kg. Following administration, plasma samples were collected pre-dose and then at 0.25, 0.5, 1, 1.5, 2, 3, 4, 6, 8, 12, and 24 hours post-dose. Plasma samples were analyzed for pravastatin concentration using an LC/MS method.

[4] = Aqueous solubility via UV absorption; conditions: water, via UV detection, 20-25 degrees C.
Description: The term “aqueous solubility” refers to the solubility as measured in deionized water at about 25 degrees C., unless otherwise specified.
A calibration curve was constructed by preparing known concentrations of API in absolute ethanol in volumetric flasks. At each concentration, 200 microliters of the solution was transferred into a 96-well clear bottom UV plate. The sample absorbance was measured at 280 nm (unless otherwise noted) in a UV spectrophotometer.
To measure the API concentration in the sample, a small aliquot was taken and diluted (typically 2000-fold) with absolute ethanol in a volumetric flask to a final approximate concentration of less than 100 micrograms/mL. The absorbance at 280 nm (unless otherwise noted) is measured and the solubility is calculated based on the calibration curve.

[5] = Dynamic Vapor Sorption (DVS) moisture sorption isotherm; type: physicochemical
Text: Dynamic Vapor Sorption (DVS) data were also acquired on both the pravastatin calcium salt and the pravastatin sodium salt. […] This is consistent with an amorphous compound. Hysteresis is observed in the desorption cycle. […] Significant hysteresis is observed in the desorption cycle.

[6] = type: physicochemical
Description: Several salts of pravastatin were suspended in 87:13 E681010:ethanol mixtures and placed in capped glass vials. Each suspension of pravastatin calcium, pravastatin magnesium, pravastatin sodium, or pravastatin zinc in 87:13 E681010:ethanol was measured periodically for 12 weeks. HPLC was used to measure degradation of the pravastatin salts.

[7] = suspension in E463808, capped glass vials, 8 weeks
[8] = beagle, dog, plasma, po, 0.95 mg/kg, Mean of six fasted beagle dogs, mean dose as free acid 0.95 mg/kg (calcium salt softgel), 0.85 mg/kg (PRAVACHOL)
[9] = individual dogs, oral, fasted, mean dose as free acid 0.95 mg/kg (calcium salt softgel), 0.85 mg/kg (PRAVACHOL), calcium salt

For CC(C)n1c(/C=C/C(O)CC(O)CC(=O)O)c(-c2ccc(F)cc2)c2ccccc21 (centres unmarked) [fluvastatin calcium salt], the aqueous solubility [1] was “less than or equal to 0.275 mg/mL”.
In the case of CC[C@H](C)C(=O)O[C@H]1C[C@H](O)C=C2C=C[C@H](C)[C@H](CC[C@@H](O)C[C@@H](O)CC(=O)O)[C@H]21 [pravastatin calcium salt], the “stability in suspension of omega-3 oil relative to other pravastatin salts (sodium, potassium)” value ([2]; summary statement referring to the Exemplification) is reported as “higher stability”, the “degradation at 60 degrees C. vs potassium salt at 40 degrees C.” value [2, 7] is reported as “significantly less degradation” and the “degradation at 60 degrees C. vs sodium salt at 40 degrees C.” value [2, 7] is reported as “similar”. The “degradation vs sodium or potassium salt at a given temperature” value ([2]; suspension in E463808, capped glass vials, 40 and 60 degrees C.) was “degrade substantially less”, the “degradation compared with all salts in gelcap or vial” value ([2]; suspension in E463808, vial, 25 degrees C., 26 weeks) was “degrade the least” and the bioavailability ([3]; beagle, dog, plasma, po, 0.95 mg/kg, Mean of six dogs, relative to PRAVACHOL AUCinf, dose-normalized) was 121%. It also gave an AUC(0-inf) [3, 8] of 0.441 µg·h/mL, an AUC(0-t) [3, 8] of 0.432 µg·h/mL and a half-life [3, 8] of 2.35 h. It also gave a Cmax ([3]; beagle, dog, plasma, po, 0.95 mg/kg, Mean of six fasted beagle dogs, oral, mean dose as free acid 0.95 mg/kg (calcium salt softgel), 0.85 mg/kg (PRAVACHOL), read-out: Cmax) of 0.141 µg/mL, a Tmax ([3]; beagle, dog, plasma, po, 0.95 mg/kg, Mean of six fasted beagle dogs, oral, mean dose as free acid 0.95 mg/kg (calcium salt softgel), 0.85 mg/kg (PRAVACHOL), read-out: Tmax) of 0.71 h and an AUC(0-t) ([3]; beagle, dog, plasma, po, 0.95 mg/kg, individual dogs, fasted, mean dose as free acid 0.95 mg/kg (calcium salt in Ropufa 75 omega-3 ethyl esters softgel), 0.85 mg/kg (PRAVACHOL)) of 0.488 µg·h/mL. For the same compound, the AUC(0-inf) ([3]; beagle, dog, plasma, po, 0.95 mg/kg, individual dogs, fasted, mean dose as free acid 0.95 mg/kg (calcium salt softgel), 0.85 mg/kg (PRAVACHOL)) was 0.494 µg·h/mL, the “AUC values compared with the PRAVACHOL tablet” value ([3]; fasted beagle dogs, oral) was “slightly higher” and the “Cmax values compared with the PRAVACHOL tablet” value ([3]; fasted beagle dogs, oral) was “slightly higher”. For the same compound, the “Tmax values compared between the formulations” value ([3]; fasted beagle dogs, oral) was “comparable”, the “AUC0–t” value ([3]; individual dogs, oral, fasted, mean dose as free acid 0.95 mg/kg (calcium salt in Ropufa 75 omega-3 ethyl esters softgel), 0.85 mg/kg (PRAVACHOL), calcium salt) was 0.43855 µg·h/mL and 0.5053 µg·h/mL and 0.38068 µg·h/mL and 0.51294 µg·h/mL and 0.26411 µg·h/mL and the AUCinf [3, 9] was 0.45369 µg·h/mL and 0.51514 µg·h/mL and 0.3962 µg·h/mL and 0.51811 µg·h/mL and 0.26801 µg·h/mL. The Cmax [3, 9] was 0.182 µg/mL and 0.131 µg/mL and 0.166 µg/mL and 0.099 µg/mL and 0.0872 µg/mL, the Tmax [3, 9] was 1 h and 0.5 h and 0.25 h and the t1/2 [3, 9] was 1.67 h and 2.5 h and 1.89 h and 2.76 h and 3.44 h and 1.85 h. The aqueous solubility ([4]; listed as calcium salt of pravastatin, calcium salt) was 17 to 20 mg/mL.
CCC(C)C(=O)OC1CC(O)C=C2C=CC(C)C(CCC(O)CC(O)CC(=O)[O-])C21.CCC(C)C(=O)OC1CC(O)C=C2C=CC(C)C(CCC(O)CC(O)CC(=O)[O-])C21.[Mg+2] (centres unmarked) [pravastatin magnesium salt (habit A), pravastatin magnesium salt] showed an aqueous solubility [4] of 14.22 mg/mL.
In the case of CCC(C)C(=O)OC1CC(O)C=C2C=CC(C)C(CCC(O)CC(O)CC(=O)[O-])C21.CCC(C)C(=O)OC1CC(O)C=C2C=CC(C)C(CCC(O)CC(O)CC(=O)[O-])C21.[Mg+2] (centres unmarked) [pravastatin magnesium salt (habit B), pravastatin magnesium salt], the aqueous solubility [4] is reported as 16.12 mg/mL.
In the case of CC[C@H](C)C(=O)O[C@H]1C[C@H](O)C=C2C=C[C@H](C)[C@H](CC[C@@H](O)C[C@@H](O)CC(=O)O)[C@H]21 [pravastatin sodium salt], the “hygroscopicity compared with the calcium salt” value ([5]; DVS) is reported as “greater hygroscopicity”, the “relative humidity above which adsorbed water increased significantly” value ([5]; DVS sorp-desorp cycle) is reported as “about 54 percent RH” and the aqueous solubility ([4]; listed as sodium salt of pravastatin, sodium salt) is reported as “greater than 300 mg/mL”.
For CC[C@H](C)C(=O)O[C@H]1C[C@H](O)C=C2C=C[C@H](C)[C@H](CC[C@@H](O)C[C@@H](O)CC(=O)O)[C@H]21.[Zn] [pravastatin zinc salt], the “moisture sorption behaviour (DVS isotherm)” value ([5]; 25 degrees C.) was “gradual increase in moisture sorption”, the “degradation to the lactone (percent lactone)” value [6] was “about 3%” and the “stability in suspension of omega-3 oil and an alcohol relative to other pravastatin salts” value [6] was “higher stability”.
For pravastatin magnesium salt, the aqueous solubility [4] was 17.24 mg/mL.
